Laboratory results taken from patent US12508216B2, “Process for the preparation of antimalassezia powder” (PRAJ INDUSTRIES LIMITED, priority 2022, dated 2025).
≈ marks a conversion by molar mass, not a printed value. Entries after “also recorded” stand apart in the source; their conditions may differ. Where two headings read alike, the source gives them in different places. One block for each molecule: values may come before it.

What was measured:
M. furfur [1] = experiment: Agar plate diffusion assay, zone of inhibition; assay type: cell-based, Malassezia furfur
Method: (§1) said first extract is analyzed for antifungal activity using agar plate diffusion assay and by time kill procedure. […] For time-kill procedure, the inoculum suspension of indicator strains of Malassezia (10^5 CFU/mL) is exposed to different concentration of First extract. Then, 50-μL aliquots is withdrawn at fixed intervals and evaluated. […] Said first extract is used further for down streaming to separate the antifungal peptides.
(§2) About 15 ml fraction which was obtained after anion exchange chromatography was lyophilized to get about 1500 mg of dry powder. About 50 mg was mixed with 1 ml sodium phosphate buffer and then said solution was injected to Scalar C18 column. The separation of the antifungal peptides was carried out by binary solvent gradient elution system comprising about 0.1% trifluoroacetic acid in HPLC grade deionized water (eluent A) and about 0.1% trifluoroacetic acid in acetonitrile (eluent B). The gradient program was as follows between: 0 to 20 min, 0-40% B, 20-30 min, 40 to 80% B, 30 to 35 min, 80 to 100% B, 35 to 45 min, 100 to 0% B at a flow rate of about 1.0 mL/min at 30° C., Six separate fractions were collected at retention times of 24.5, 28.2, 30.1, 32.2, 34.5 and 37.1 minutes and seventh fraction was collected from 38 to 43 minutes according to the absorption profile at 220 nm and 280 nm using the fraction collector and further freeze-dried. Individual fractions were labelled as 1, 2, 3, 4, 5, 6 and 7 in the order if increasing retention times, dissolved in sterile distilled water and then tested for their individual antifungal activity. […] And fraction 5 was not reported against M. furfur, M. globose species. For experiment the 0.1 M sodium phosphate buffer was used as a negative control and Ketoconazol was used as a positive control

M. globosa [2] = experiment: Agar plate diffusion assay, zone of inhibition; assay type: cell-based, Malassezia globosa
Method: as §1, §2

M. globosa [3] = experiment: MIC and MFC by broth microdilution technique; assay type: cell-based, Malassezia globosa; conditions: for MFC: first figure of MFC/MIC cell; for MIC: second figure of MFC/MIC cell
Method: (§3) The MIC of first extract and individual fractions (1-7) which were collected from RP-HPLC was calculated by ‘broth microdilution technique’ in 96-well microtiter plates. […] As a positive control, commercially used antifungal drug ketoconazole was used in concentrations ranging from 32 μg/mL to 0.0156 μg/mL. The plates were incubated at 30° C. for Malassezia spp and the results were recorded after 48 h and 7 days. The minimum inhibitory concentration (MIC) was measured as the lowest sample concentration that could inhibit the fungal growth.

M. furfur [4] = experiment: MIC and MFC by broth microdilution technique; assay type: cell-based, Malassezia furfur; conditions: for MFC: first figure of MFC/MIC cell; for MIC: second figure of MFC/MIC cell
Method: as §3

[5] = system: Malassezia indicator strains; experiment: Agar plate diffusion assay, antifungal activity in words; assay type: cell-based; conditions: against Malassezia, compared among fractions 1-7
Method: as §1
About 15 ml fraction which was obtained after anion exchange chromatography was lyophilized to get about 1500 mg of dry powder. About 50 mg was mixed with 1 ml sodium phosphate buffer and then said solution was injected to Scalar C18 column. The separation of the antifungal peptides was carried out by binary solvent gradient elution system comprising about 0.1% trifluoroacetic acid in HPLC grade deionized water (eluent A) and about 0.1% trifluoroacetic acid in acetonitrile (eluent B). The gradient program was as follows between: 0 to 20 min, 0-40% B, 20-30 min, 40 to 80% B, 30 to 35 min, 80 to 100% B, 35 to 45 min, 100 to 0% B at a flow rate of about 1.0 mL/min at 30° C., Six separate fractions were collected at retention times of 24.5, 28.2, 30.1, 32.2, 34.5 and 37.1 minutes and seventh fraction was collected from 38 to 43 minutes according to the absorption profile at 220 nm and 280 nm using the fraction collector and further freeze-dried. […]

Molecule: C15 Bacillomycin D [Fraction 3]
Zone of inhibition (M. furfur [1]): 3 ± 0.26 mm
Zone of inhibition (M. globosa [2]): 2 ± 0.25 mm
MFC (M. globosa [3]): >228 µg/mL
MIC (M. globosa [3]): >228 µg/mL
MFC (M. furfur [4]; M. furfur): >228 µg/mL
MIC (M. furfur [4]; M. furfur): >228 µg/mL
MFC (M. furfur [4]; first M. furfur column): >228 µg/mL
MIC (M. furfur [4]; first M. furfur column): >228 µg/mL

MIC (M. globosa [3]): 48 µg/mL (≈ 95.5 µM)
MIC (M. furfur [4]; M. furfur): 48 µg/mL (≈ 95.5 µM)
MIC (M. furfur [4]; first M. furfur column): 48 µg/mL (≈ 95.5 µM)
Molecule: CC1CCCC=CC=CC(O)CC(O)CC=CC=CC(OC(=O)CCC(=O)O)CC=CC=CC(=O)O1 (stereo not drawn) [Fraction 6, 7-O-succinylmacrolactin A]
antifungal activity of individual fractions in words [5]: strongest anti-fungal activity; also recorded: strongest antifungal activity
Zone of inhibition (M. furfur [1]): 6 ± 0.7 mm
Zone of inhibition (M. globosa [2]): 7 ± 0.65 mm
MFC (M. globosa [3]): 96 µg/mL (≈ 191 µM)
MFC (M. furfur [4]; M. furfur): 96 µg/mL (≈ 191 µM)
MFC (M. furfur [4]; first M. furfur column): 96 µg/mL (≈ 191 µM)

MIC (M. globosa [3]; Malassezia globosa, read-out: MIC): 0.03 µg/mL (≈ 0.0565 µM)
MIC (M. furfur [4]; M. furfur): 0.03 µg/mL (≈ 0.0565 µM)
MIC (M. furfur [4]; Malassezia furfur, first M. furfur column, read-out: MIC): 0.03 µg/mL (≈ 0.0565 µM)
Molecule: CC(=O)N1CCN(c2ccc(OCC3COC(Cn4ccnc4)(c4ccc(Cl)cc4Cl)O3)cc2)CC1 (stereo not drawn) [Ketoconazole, reference compound]
Zone of inhibition (M. furfur [1]): 12 ± 0.65 mm
Zone of inhibition (M. globosa [2]): 11 ± 0.64 mm
MFC (M. globosa [3]; Malassezia globosa, read-out: MFC): 0.08 µg/mL (≈ 0.151 µM)
MFC (M. furfur [4]; M. furfur): 0.1 µg/mL (≈ 0.188 µM)
MFC (M. furfur [4]; Malassezia furfur, first M. furfur column, read-out: MFC): 0.1 µg/mL (≈ 0.188 µM)

Molecule: C14 Bacillomycin D [Fraction 2]
Zone of inhibition (M. furfur [1]): 2 ± 0.45 mm
Zone of inhibition (M. globosa [2]): 2 ± 0.42 mm
MFC (M. globosa [3]): >228 µg/mL
MIC (M. globosa [3]): >228 µg/mL
MFC (M. furfur [4]; M. furfur): >228 µg/mL
MIC (M. furfur [4]; M. furfur): >228 µg/mL
MFC (M. furfur [4]; first M. furfur column): >228 µg/mL
MIC (M. furfur [4]; first M. furfur column): >228 µg/mL

Molecule: C[C@@H]1CCC/C=C/C=C/[C@H](O)C[C@@H](O)C/C=C\C=C\[C@@H](O)C/C=C/C=C\C(=O)O1 [Fraction 5, Macrolactin A]
antifungal activity of individual fractions in words [5]: strongest anti-fungal activity
Zone of inhibition (M. furfur [1]): 2 ± 0.77 mm
Zone of inhibition (M. globosa [2]): 2 ± 0.69 mm
MFC (M. globosa [3]): 275 µg/mL (≈ 683 µM)
MIC (M. globosa [3]): 138 µg/mL (≈ 343 µM)
MFC (M. furfur [4]; M. furfur): 330 µg/mL (≈ 820 µM)
MIC (M. furfur [4]; M. furfur): 165 µg/mL (≈ 410 µM)
MFC (M. furfur [4]; first M. furfur column): 313 µg/mL (≈ 778 µM)
MIC (M. furfur [4]; first M. furfur column): 156 µg/mL (≈ 388 µM)

Molecule: C16 Bacillomycin D [Fraction 4]
MFC (M. globosa [3]): >228 µg/mL
MIC (M. globosa [3]): >228 µg/mL
MFC (M. furfur [4]; M. furfur): >228 µg/mL
MIC (M. furfur [4]; M. furfur): >228 µg/mL
MFC (M. furfur [4]; first M. furfur column): >228 µg/mL
MIC (M. furfur [4]; first M. furfur column): >228 µg/mL
